Laboratory results: patent US10940139B2, “Compounds that interact with the Ras superfamily for the treatment of cancers, inflammatory diseases, rasopathies, and fibrotic disease” (Shy Therapeutics LLC, priority 2017, dated 2021)

Test system: MAPK phosphorylation in PANC-1 pancreatic cancer cell line
Test: MAPK cell-based phosphorylation assay (cell-direct ELISA, EGF stimulation)
Conditions: Homo sapiens
Experimental: Cell lines: Tumor-derived pancreatic cancer cell lines PANC-1 were purchased from ATCC and were maintained according to ATCC recommendation.
Method: Cells were plated at 7500 cells/well density in 96-wells plate, starved over night, and the small molecules to be tested were added to the cells in the final concentration of 30 μM with 0.3% DMSO for 6 hours incubation at 37° C. For IC50 value determination, serial dilutions of compounds were added to cells under the same conditions. Next, cells were stimulated with 1.5 ng/ml EGF for 15 min. followed by cell fixation with 4% Formaldehyde in PBS at RT for 20 min. Phosphorylation level of MAPK was determined by Cell-direct ELISA.
Cell-direct ELISA: For each well, cells were permeabilized with PBS-Triton 0.1%, quenched with H2O2 0.6% in PBS-Triton 0.1%, and probed with anti-phospho-MAPK antibodies (R&D Systems) followed by HRP-conjugated secondary antibody (Jackson Immunoresearch, West Grove, Pa.). Next, a solution 50 μM of the fluorescent substrate AmpliFlu Red (Sigma) was added and incubated at RT for 20 min. At the end of the incubation time, fluorescence was measured at 595 nm on a microplate reader (AF2200; Eppendorf, Inc., Hamburg, Germany).

SMILES | IC50 [µM]
Oc1nc(-c2ccccn2)nc2c(Br)csc12 [drawing 1064] | 2 to 10
O=C(c1csc2c(O)nc(-c3ccccn3)nc12)N1CCN(c2ccccc2)CC1 [drawing 1068] | 2 to 10
Oc1nc(-c2ccccn2)nc2c(-c3ccccc3)csc12 [drawing 1074] | < 2
Oc1nc(-c2ccccn2)nc2c(-c3ccccc3Cl)csc12 [drawing 1075] | < 2
Oc1nc(-c2ccccn2)nc2scc(Br)c12 [drawing 1080] | 2 to 10
Oc1nc(-c2ccccn2)nc2sccc12 [drawing 1081] | 11 to 30
N#Cc1ncn(-c2nc(-c3ccccn3)nc3sc(-c4ccccc4)cc23)n1 [drawing 1083] | 2 to 10
O=C(CN1CCN(c2nc(-c3ccccn3)nc3sc(-c4ccccc4)cc23)CC1)N1CCCC1 [drawing 1091] | 2 to 10
COc1ccnc(-c2nc(O)c3ccsc3n2)c1 [drawing 1114] | > 30
COc1cccc(N2CCN(C(=O)c3csc4c(O)nc(-c5ccccn5)nc34)CC2)c1 [drawing 1118] | > 30
Cc1ccccc1N1CCN(C(=O)c2csc3c(O)nc(-c4ccccn4)nc23)CC1 [drawing 1123] | > 30
O=C(c1csc2c(O)nc(-c3ccccn3)nc12)N1CCN(Cc2cccc(O)c2)CC1 [drawing 1125] | > 30

Same assay, conditions: Homo sapiens, at 30 μM

SMILES | inhibition at 30 µM [%]
CCCOc1ccc2ccccc2c1CN(C)S(=O)(=O)N1CC(C)OC(C)C1 (stereo not shown) [drawing 1051] | 1 to 25
O=S(=O)(Oc1cc(C(F)(F)F)cc(C(F)(F)F)c1)N1CCc2ccccc2C1 [drawing 1052] | 1 to 25
COC(=O)C(C)CN(Cc1cc(Br)ccc1[N+](=O)[O-])C1CC1 (stereo not shown) [drawing 1054] | 1 to 25
CSc1nc(C2CC2)cc(C(=O)NCCc2ccc(S(=O)(=O)NC(=O)c3cc(C4CC4)nc(SC)c3C#N)cc2)c1C#N [drawing 1055] | 76 to 100
CC(C)C1=C(O)C2(CC2c2ccc(-c3ccccc3)cc2)C(C)CC1 (stereo not shown) [drawing 1056] | 1 to 25
COc1ccc(COCC(=O)N2CCCc3c(O)nc(-c4ccccn4)nc32)cc1 [drawing 1057] | 1 to 25
COc1ccc(CCC(=O)N2CCCc3c(O)nc(-c4ccccn4)nc32)cc1 [drawing 1058] | 25 to 50
O=C(c1ccc(=O)[nH]n1)N1CCCc2c(O)nc(-c3ccccn3)nc21 [drawing 1059] | 1 to 25
O=S(=O)(CCc1ccccc1)N1CCCc2c(O)nc(-c3ccccn3)nc21 [drawing 1060] | 25 to 50
O=C(CC(c1ccccc1)c1ccccc1)N1CCCc2c(O)nc(-c3ccccn3)nc21 [drawing 1061] | 1 to 25
O=C(c1ccccn1)N1CCCc2c(O)nc(-c3ccccn3)nc21 [drawing 1062] | 1 to 25
Nc1nc(O)c2scc(C(=O)N3CCc4ccccc4CC3)c2n1 [drawing 1063] | 1 to 25
Oc1nc(-c2ccccn2)nc2c(Br)csc12 [drawing 1064] | 76 to 100
CC1CCN(C(=O)c2csc3c(O)nc(-c4ccccn4)nc23)CC1 [drawing 1065] | 1 to 25
COCCCC1CCN(C(=O)c2csc3c(O)nc(-c4ccccn4)nc23)CC1 [drawing 1066] | 1 to 25
O=C(c1csc2c(O)nc(-c3ccccn3)nc12)N1CCC(N2CCOCC2)CC1 [drawing 1067] | 1 to 25
O=C(c1csc2c(O)nc(-c3ccccn3)nc12)N1CCN(c2ccccc2)CC1 [drawing 1068] | 76 to 100
O=C(c1csc2c(O)nc(-c3ccccn3)nc12)N1CCN(c2ccncc2)CC1 [drawing 1069] | 25 to 50
O=C(c1csc2c(O)nc(-c3ccccn3)nc12)N1CCC(c2cccnc2)CC1 [drawing 1070] | 1 to 25
O=C(NCCc1cccnc1)c1csc2c(O)nc(-c3ccccn3)nc12 [drawing 1071] | 1 to 25
O=C(c1csc2c(O)nc(-c3ccccn3)nc12)N1CCc2ccccc2CC1 [drawing 1072] | 25 to 50
Nc1nc(O)c2scc(-c3ccccc3Cl)c2n1 [drawing 1073] | 1 to 25
Oc1nc(-c2ccccn2)nc2c(-c3ccccc3)csc12 [drawing 1074] | 76 to 100
Oc1nc(-c2ccccn2)nc2c(-c3ccccc3Cl)csc12 [drawing 1075] | 76 to 100
Oc1nc(-c2ccccn2)nc2[nH]cnc12 [drawing 1076] | 1 to 25

SMILES | inhibition at 30 µM [%]
Oc1nc(-c2ccccn2)nc2c1ncn2-c1ccccn1 [drawing 1077] | 1 to 25
Brc1csc2nc(-c3ccccn3)nc(N3CCOCC3)c12 [drawing 1079] | 1 to 25
Oc1nc(-c2ccccn2)nc2scc(Br)c12 [drawing 1080] | 76 to 100
Oc1nc(-c2ccccn2)nc2sccc12 [drawing 1081] | 1 to 25
O=C1CN(c2nc(-c3ccccn3)nc3scc(-c4ccccc4)c23)CCN1 [drawing 1082] | 1 to 25
N#Cc1ncn(-c2nc(-c3ccccn3)nc3sc(-c4ccccc4)cc23)n1 [drawing 1083] | 76 to 100
Cc1nnc(C(Nc2nc(-c3ccccn3)nc3scc(-c4ccccc4)c23)c2ccccc2)n1C (stereo not shown) [drawing 1084] | 51 to 75
Cc1sc2nc(-c3ccccn3)nc(NCCc3nccn3C)c2c1-c1ccccc1 [drawing 1085] | 1 to 25
CCCNC(=O)CN1CCN(c2nc(-c3ccccn3)nc3sc(-c4ccccc4)cc23)CC1 [drawing 1086] | 76 to 100
c1ccc(-c2csc3nc(-c4ccccn4)nc(N4CCN(Cc5cccnc5)CC4)c23)cc1 [drawing 1087] | 1 to 25
c1ccc(-c2csc3nc(-c4ccccn4)nc(N4CCN(CC5CCCO5)CC4)c23)cc1 (stereo not shown) [drawing 1088] | 1 to 25
CN(Cc1cnn(C)c1)c1nc(-c2ccccn2)nc2scc(-c3ccccc3)c12 [drawing 1089] | 25 to 50
CN(CCCc1n[nH]c(N)c1C#N)c1nc(-c2ccccn2)nc2sc(-c3ccccc3)cc12 [drawing 1090] | 25 to 50
O=C(CN1CCN(c2nc(-c3ccccn3)nc3sc(-c4ccccc4)cc23)CC1)N1CCCC1 [drawing 1091] | 76 to 100
CNC(=O)CN1CCN(c2nc(-c3ccccn3)nc3scc(-c4ccccc4)c23)CC1 [drawing 1092] | 1 to 25
O=S1(=O)CCC(N2CCN(c3nc(-c4ccccn4)nc4scc(-c5ccccc5)c34)CC2)C1 (stereo not shown) [drawing 1093] | 1 to 25
CN(CC(=O)N1CCOCC1)c1nc(-c2ccccn2)nc2scc(-c3ccccc3)c12 [drawing 1094] | 1 to 25
CON(C)c1nc(-c2ccccn2)nc2scc(-c3ccccc3)c12 [drawing 1095] | 25 to 50
O=C(CN1CCN(c2nc(-c3ccccn3)nc3scc(-c4ccccc4)c23)CC1)N1CCCCC1 [drawing 1096] | 25 to 50
O=C(CNc1nc(-c2ccccn2)nc2scc(-c3ccccc3)c12)NC1CC1 [drawing 1097] | 25 to 50
CCN(CC)C(=O)CN1CCN(c2nc(-c3ccccn3)nc3scc(-c4ccccc4)c23)CC1 [drawing 1098] | 25 to 50
CC(C)CNC(=O)CN1CCN(c2nc(-c3ccccn3)nc3scc(-c4ccccc4)c23)CC1 [drawing 1099] | 1 to 25
O=S1(=O)CCC(Nc2nc(-c3ccccn3)nc3scc(-c4ccccc4)c23)C1 (stereo not shown) [drawing 1100] | 1 to 25
c1ccc(-c2csc3nc(-c4ccccn4)nc(N4CCN(CCN5CCCC5)CC4)c23)cc1 [drawing 1101] | 76 to 100
OC1CCCN(c2nc(-c3ccccn3)nc3scc(-c4ccccc4)c23)C1 (stereo not shown) [drawing 1102] | 51 to 75

SMILES | inhibition at 30 µM [%]
OC1CCN(c2nc(-c3ccccn3)nc3scc(-c4ccccc4)c23)CC1 [drawing 1103] | 1 to 25
O=C(CN1CCN(c2nc(-c3ccccn3)nc3scc(-c4ccccc4)c23)CC1)N1CCCC1 [drawing 1104] | 1 to 25
O=C(C1CCN(c2nc(-c3ccccn3)nc3scc(-c4ccccc4)c23)CC1)N1CCCCC1 [drawing 1105] | 1 to 25
c1ccc(-c2csc3nc(-c4ccccn4)nc(NN4CCOCC4)c23)cc1 [drawing 1106] | 1 to 25
NC(=O)C1CCCN(c2nc(-c3ccccn3)nc3scc(-c4ccccc4)c23)C1 (stereo not shown) [drawing 1107] | 1 to 25
COCCNc1nc(-c2ccccn2)nc2scc(-c3ccccc3)c12 [drawing 1108] | 76 to 100
CC(=O)N1CCN(c2nc(-c3ccccn3)nc3scc(-c4ccccc4)c23)CC1 [drawing 1109] | 25 to 50
O=C1CCN(c2nc(-c3ccccn3)nc3scc(-c4ccccc4)c23)CC1 [drawing 1110] | 25 to 50
NC(=O)C1CCN(c2nc(-c3ccccn3)nc3scc(-c4ccccc4)c23)CC1 [drawing 1111] | 1 to 25
Nc1nc(O)c2nc[nH]c2n1 [drawing 1112] | 1 to 25
Clc1csc2nc(-c3ccccn3)nc(N3CCOCC3)c12 [drawing 1113] | 1 to 25
COc1ccnc(-c2nc(O)c3ccsc3n2)c1 [drawing 1114] | 51 to 75
COCCC(C)Nc1nc(-c2ccccn2)nc2sccc12 (stereo not shown) [drawing 1115] | 25 to 50
Oc1nc(-c2ccccn2)nc2c(C3CCNCC3)csc12 [drawing 1116] | 1 to 25
COc1ccccc1N1CCN(C(=O)c2csc3c(O)nc(-c4ccccn4)nc23)CC1 [drawing 1117] | 1 to 25
COc1cccc(N2CCN(C(=O)c3csc4c(O)nc(-c5ccccn5)nc34)CC2)c1 [drawing 1118] | 76 to 100
O=C(c1csc2c(O)nc(-c3ccccn3)nc12)N1CCN(c2ccccc2Cl)CC1 [drawing 1119] | 1 to 25
O=C(c1csc2c(O)nc(-c3ccccn3)nc12)N1CCN(c2cccc(Cl)c2)CC1 [drawing 1120] | 25 to 50
O=C(c1csc2c(O)nc(-c3ccccn3)nc12)N1CCN(c2ccccc2F)CC1 [drawing 1121] | 1 to 25
N#Cc1ccccc1N1CCN(C(=O)c2csc3c(O)nc(-c4ccccn4)nc23)CC1 [drawing 1122] | 1 to 25
Cc1ccccc1N1CCN(C(=O)c2csc3c(O)nc(-c4ccccn4)nc23)CC1 [drawing 1123] | 25 to 50
COc1ccc(CN2CCN(C(=O)c3csc4c(O)nc(-c5ccccn5)nc34)CC2)cc1 [drawing 1124] | 1 to 25
O=C(c1csc2c(O)nc(-c3ccccn3)nc12)N1CCN(Cc2cccc(O)c2)CC1 [drawing 1125] | 51 to 75
